Here are results for three substances from patent US20090311185A1, “Peptide having antianxiety activity and screening method therefor” (priority 2005, published 2009).

“Also recorded” adds a separate entry of the source. Bridges are numbered along the chain shown (N, C = ends). Roman numbers before positions name the chains, in order. Where no end group is shown, it is not given here.

One test deals with T1, SALPR (Homo sapiens, UniProt Q9NSD7).
T1 construct: the area encoding SALPR is known to be from position 1 to position 1407 (1410 base pairs, 469 amino acid residues); expressed in transfected cells; host or cells: SE302 cells (HEK293 clone carrying the CRE-PLAP reporter), transduced with retrovirus vector pBabeCL(SALPR)IH and selected with hygromycin
T1 sequence (Q9NSD7 1-469): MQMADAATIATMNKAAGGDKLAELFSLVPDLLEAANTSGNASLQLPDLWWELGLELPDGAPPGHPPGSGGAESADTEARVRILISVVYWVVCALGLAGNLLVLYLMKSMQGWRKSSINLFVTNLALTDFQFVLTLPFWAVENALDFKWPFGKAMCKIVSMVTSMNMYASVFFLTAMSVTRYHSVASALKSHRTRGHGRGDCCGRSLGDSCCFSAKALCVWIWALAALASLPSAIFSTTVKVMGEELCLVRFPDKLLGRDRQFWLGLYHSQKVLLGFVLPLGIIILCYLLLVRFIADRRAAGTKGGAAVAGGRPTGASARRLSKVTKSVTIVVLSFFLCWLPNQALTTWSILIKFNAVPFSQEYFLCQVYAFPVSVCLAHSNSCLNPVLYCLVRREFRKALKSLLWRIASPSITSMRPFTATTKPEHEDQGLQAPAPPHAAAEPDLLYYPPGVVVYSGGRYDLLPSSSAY
The test can be described thus: Suppression of forskolin-increased transcription activity (CRE-PLAP reporter) in SALPR-SE302 cells. The format is cell-based. As to conditions: forskolin 1 μmol/L, 1 day incubation. The method, then:
SE302 cells (3×10^3) constructed in Example 5 above were cultured in a 96-well plate (Asahi Techno Glass) using 100 μl of DMEM (Sigma) supplemented with […] fetal bovine serum (FBS) and PS (hereinafter called “culture medium”). On the following day, the retrovirus vector prepared in Example 4 was appropriately diluted and a 100-μl portion of the dilution and polybrene (also called as hexadimethrine bromide, Sigma) prepared in the culture medium (at a final concentration of 8 μg/ml) were added to the SE302 cells. On the following day, the culture medium was replaced by 200 μl of a culture medium supplemented with 500 μg/ml hygromycin (Invitrogen) and then incubation was continued. The SE302 cells for SALPR gene transfer grown under these conditions (hereinafter called “SALPR-SE302 cells”) were appropriately subcultured for experimental use.
SALPR-SE302 cells constructed in Example 6 above were suspended in a medium for measuring transcription activity (DMEM supplemented with 10% FBS (inactivated at 65° C. for 30 minutes)) and then inoculated in a 96-well plate (Beckton Dickinson) at 1×10^4 cells/well. […]

For a further test, the system named is THP-1 cells. Conditions: THP-1 cells of the immune system; WO 01/81562, Bathgate et al. 2002; cited from earlier work.
For test [1], the system named is rats. Kind of test: Defensive burying test after intracerebroventricular administration. The format is in vivo, rat. As to conditions: F344 male rats, 15 min test, vs vehicle. The procedure:
The influence of relaxin-3 on an anxiety activity was determined using a defensive burying test (Treit et al., Pharmacology Biochemistry and Behavior, 15, p. 619-626, 1981).
F344 male rats (7 weeks of age; Japan Charles River) were fed foods for experimental animals (MF; Oriental Yeast) to be adapted. The rats (150 to 200 g) received cannulation into the lateral cerebroventricle under anesthesia. Administration experiments of relaxin-3 were carried out a week or later.
The tested rats were placed and left in a testing chamber, which floor was covered with a bedding material to a height of 5 cm, for 30 minutes or more once a day from 3 days before the defensive burying test, so as to allow the tested rats to habituate to the testing environment. The rats were habituated to the environment without the stimulating electrode until the test. […]
On test day, the tested rats were placed in a test chamber (with bedding material to a height of 5 cm) with a stimulating electrode, so as to start an experiment. […] All behaviors of the tested rats were recorded using a videocamera, and the burying behavior time (burying time (sec.)) within 15 minutes from the first electrical shock was measured using the recorded tape. […]

Another test concerns mice. The test can be described thus: Elevated plus-maze test after intracerebroventricular administration (mice). The format is in vivo. Conditions: BALB/c male mice, 1 nmol/mouse intracerebroventricular, 5 min test, vs vehicle. The procedure:
The influence of relaxin-3 on anxiety activity was determined using an elevated plus-maze. An elevated plus-maze test is a behavioral pharmacological test which is widely used in the measurement of anxiety level of experimental animals such as rats or mice, or for the evaluation of drug efficacies of antianxiety drugs, using exploring behaviors in open arms, such as the time spent in open arms, as an index.
BALB/c male mice (7 weeks of age; Japan Charles River) were received cannulation into the lateral cerebroventricle under anesthesia. The mice were then fed, and administration experiments of relaxin-3 were carried out a week or later.
The human relaxin-3 (Peptide Institute, Inc.) was dissolved in physiological saline and was diluted to a final concentration of 1 nmol/mouse.
The tested mice with guide cannula implantation were intracerebroventricularly administered with each 2 μL of the human relaxin-3 administration solution (N=8) or a vehicle solution (physiological saline) (N=9) at a rate of 1 μL per minute using an infusion pump.
Antianxiety activities were measured using an elevated plus-maze. […] The behaviors of mice were recorded by a video, and the number of entries into the open and closed arms and the time spent in the open and closed arms were measured on each mouse by analyzing the video after the completion of the test. […]

Test [2] has as its system rats. The test can be described thus: Elevated plus-maze test after intracerebroventricular administration (rats). The format is in vivo, rat. As to conditions: Wistar male rats, 5 min test, vs vehicle. The method, then: The influence of relaxin-3 on anxiety activity was determined using an elevated plus-maze.
Wistar male rats (9 weeks of age; Japan Charles River) were received cannulation into the lateral cerebroventricle under anesthesia. The rats were then fed, and administration experiments of relaxin-3 were carried out a week or later.
The human relaxin-3 (Peptide Institute, Inc.) was dissolved in physiological saline and was diluted to a final concentration of 10 pmol/rat or 50 pmol/rat.
The tested rats with guide cannula implantation were administered with 5 μL each of the human relaxin-3 administration solution (10 pmol/rat, N=8; or 50 pmol/rat, N=7), or vehicle group (physiological saline, N=7) at a rate of 2.5 μL per minute using an infusion pump.
Antianxiety activities were measured using an elevated plus-maze. The maze was raised 50 cm above the floor and included four arms arranged in the form of a plus sign (+) spread from the central platform (10 cm×10 cm) positioned at the center. Two opposite arms (50 cm long and 10 cm wide) are open arms, and the other two opposite arms (50 cm long, 10 cm wide with walls 40 cm high) were closed arms. Lighting was arranged so as to set the luminance at the floor in the open arms was 60 to 80 lux. A rat 10 minutes after the intracerebroventricular administration was placed in the center of the plus-maze so as to face one of the open arms, and the test was carried out for 5 minutes. The test was conducted only within a period from 11:00 to 16:00. The behaviors of rats were recorded by a video, and the number of entries into the open and closed arms and the time spent in the open and closed arms were measured on each mouse by analyzing the video after the completion of the test. FIGS. 7 and 8 show the total number of entries into open and closed arms and the percentage of time spent in open arms within 5 minutes, respectively. To compare among the human relaxin-3 administration groups and the vehicle group, a significant difference test by the t-test was conducted.

Where [3] appears, read: 50 pmol/rat intracerebroventricular.

Turning to “relaxin-3: Relaxin-3 (Phoenix Pharmaceuticals) used in the SALPR reporter assay; mature two-chain polypeptide also known as INSL7”, in the test with SALPR, the “transcription activity increased by addition of forskolin (alkaline phosphatase reporter)” value is “suppresses; also recorded: specific dose-dependent suppression”. Also, in the test with THP-1 cells, the “intracellular cyclic AMP (cAMP)” value is “increase”.
Turning to insulin [reference compound], the “transcription activity increased by addition of forskolin (alkaline phosphatase reporter)” value on SALPR was “not affected”.
On to “human relaxin-3: Synthetic human relaxin-3: B-chain SEQ ID NO: 5 and A-chain SEQ ID NO: 6 bonded through disulfide bonds (beta RAAPYGVRLCGREFIRAVIFTCGGSRW; alpha DVLAGLSSSCCKWGCSKSEISSLC; disulfide I:10-II:11, I:22-II:24, II:10-II:15; not fully specified; ends not checked; listed as Homo sapiens)”, for which the burying behavior time result in the test on rats [1] (0.05 nmol/rat intracerebroventricular) is “decreased”; in the test on rats [1] (1 nmol/rat intracerebroventricular, Dunnett P<0.05), “significant decrease”. Also, the “total number of entries into open and closed arms” value with mice, in the test with rats [2] (10 pmol/rat intracerebroventricular) and in the test with rats [2] (setting [3]) was “no difference” throughout. For the same substance, the “time spent in open arms” value is “significant increase” in the test with mice (P<0.05); “statistically significantly high” in the test with rats [2] (10 pmol/rat intracerebroventricular, P<0.05); “increase” with rats [2] (setting [3]).
